In the assay the target is T1, glucocorticoid receptor (GR) (Homo sapiens, UniProt P04150).
T1 construct: gene NR3C1
T1 sequence (P04150 1-777): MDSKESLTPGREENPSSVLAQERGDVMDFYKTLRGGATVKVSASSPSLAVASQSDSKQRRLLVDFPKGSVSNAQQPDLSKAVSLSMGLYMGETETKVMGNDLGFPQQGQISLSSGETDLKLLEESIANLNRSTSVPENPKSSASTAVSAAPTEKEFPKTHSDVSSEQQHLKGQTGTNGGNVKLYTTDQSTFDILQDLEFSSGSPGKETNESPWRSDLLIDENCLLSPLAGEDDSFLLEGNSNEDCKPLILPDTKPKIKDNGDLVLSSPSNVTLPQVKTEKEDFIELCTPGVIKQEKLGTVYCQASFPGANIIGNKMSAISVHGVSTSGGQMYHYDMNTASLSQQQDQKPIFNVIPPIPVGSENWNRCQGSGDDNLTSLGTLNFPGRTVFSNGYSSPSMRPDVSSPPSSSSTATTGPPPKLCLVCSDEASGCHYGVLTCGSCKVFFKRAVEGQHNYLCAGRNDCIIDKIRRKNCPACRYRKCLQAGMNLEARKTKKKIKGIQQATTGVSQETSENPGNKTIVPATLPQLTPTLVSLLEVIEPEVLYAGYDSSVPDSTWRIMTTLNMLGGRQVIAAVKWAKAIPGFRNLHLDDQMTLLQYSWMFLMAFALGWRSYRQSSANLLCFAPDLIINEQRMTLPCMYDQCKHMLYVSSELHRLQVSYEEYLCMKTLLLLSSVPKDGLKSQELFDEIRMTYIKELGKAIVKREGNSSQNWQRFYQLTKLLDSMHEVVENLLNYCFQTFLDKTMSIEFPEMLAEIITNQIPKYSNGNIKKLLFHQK
Kind of assay: PolarScreen GR competitor assay, fluorescence polarization displacement of Fluormone. Format: binding. (In general: Polarisation of emitted light reports the rotation of a fluorescent probe.)

What is called IC50 is the point on the concentration scale where inhibition reaches its midpoint. The low end stands for greater potency in that assay, the high end for weaker potency in that assay. As to `CC(C)=CCC[C@](C)(O[C@@H]1O[C@H](CO[C@@H]2O[C@H](CO)[C@@H](O)[C@H](O)[C@H]2O)[C@@H](O)[C@H](O)[C@H]1O)[C@H]1CC[C@]2(C)[C@@H]1[C@H](O)C[C@@H]1[C@@]3(C)CC[C@H](O)C(C)(C)[C@@H]3CC[C@]12C` [G75, Gypenoside LXXV], the half-maximal inhibitory concentration (IC50) amounted to 52.8 nM.

These data come from PMC6515290, “Gypenoside LXXV Promotes Cutaneous Wound Healing In Vivo by Enhancing Connective Tissue Growth Factor Levels Via the Glucocorticoid Receptor Pathway” (Molecules, 2019).
